Here are results for 3 compounds from US4605744A, “Imidazole derivatives” (Hoffmann-La Roche Inc., priority 1985, dated 1986).

Molecules are shown by their SMILES. In brackets after ≈: the same amount, converted by molar mass. Structures can show the parent of a compound that is named as a salt. Where two headings read alike, the source gives them in different places.

For orientation: MIC means the smallest concentration in the dilution series that meets the test's criterion for growth inhibition.

Test in all cases: In vitro antibacterial activity (MIC)
Common to all, as to format: cell-based

In one test the test system is E. aerogenes 8. The following applies: Klebsiella aerogenes; E. aerogenes 8; read-out: MIC. In outline:
(§1)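 Broth microdilution in Mueller-Hinton broth, drug range 128 to 0.008 μg/ml; each well inoculated with 1.5 μl of a 10^-2 dilution of overnight culture. Sealed trays incubated overnight at 37° C. MIC is the lowest concentration showing no visible growth.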

Another test concerns E. cloacae 6951. The following applies: Enterobacter cloacae, 6951, E. cloacae 6951; read-out: MIC. In outline:
as §1

The subject of the next test is E. cloacae P99. Conditions: Enterobacter cloacae, P99, E. cloacae P99. In outline:
as §1

The next test has as its system E. coli 503-455. Conditions: Escherichia coli, 503455, E. coli 503-455; read-out: MIC. The gist of the method: as §1
A further test has as its system E. coli R-563. Conditions: Escherichia coli. In outline: as §1
The test system of the next test is K. pneumoniae 503-964. Conditions: Klebsiella pneumoniae, 503964; K. pneumoniae 503-964; read-out: MIC. The gist of the method:
as §1

A further test deals with K. pneumoniae 8357. The following applies: Klebsiella pneumoniae, 8357, K. pneumoniae 8357; read-out: MIC. The gist of the method: as §1
In another test the test system is K. pneumoniae A. Conditions: Klebsiella pneumoniae, K. pneumoniae A; read-out: MIC. In outline: as §1
Another test relates to P. aeruginosa 503-820. The following applies: Pseudomonas aeruginosa, 503820; P. aeruginosa 503-820; read-out: MIC. In outline:
as §1

A further test relates to P. aeruginosa 5700. Conditions: Pseudomonas aeruginosa, 5700, P. aeruginosa 5700; read-out: MIC. In outline: as §1
Another test has as its system P. aeruginosa 8780. Conditions: Pseudomonas aeruginosa; P. aeruginosa 8780; read-out: MIC. In outline:
as §1

In the next test the test system is P. aeruginosa Stone 130. The following applies: Pseudomonas aeruginosa, STONE130, read-out: MIC. In outline:
as §1

The test system of the next test is P. mirabilis 190. The following applies: Proteus mirabilis, 190, P. mirabilis 190; read-out: MIC. The gist of the method: as §1
The next test relates to P. mirabilis 620A. The following applies: Proteus mirabilis, 620A, P. mirabilis 620A; read-out: MIC. The gist of the method:
as §1

In a further test the test system is P. mirabilis 90. The following applies: Proteus mirabilis, 90, P. mirabilis 90; read-out: MIC. In outline: as §1
The next test has as its system P. rettgeri ATCC 9250. Conditions: Providencia rettgeri, ATCC9250, P. rettgeri ATCC 9250; read-out: MIC. In outline:
as §1

The subject of a further test is P. vulgaris 100. Conditions: Proteus vulgaris; P. vulgaris 100; read-out: MIC. The gist of the method:
as §1

A further test relates to S. aureus 1059B. Conditions: Staphylococcus aureus, read-out: MIC. The gist of the method:
as §1

In the next test the test system is S. faecalis C1. The following applies: Enterococcus faecalis; S. faecalis C1; read-out: MIC. In outline: as §1
The next test deals with S. marcescens S2. The following applies: Serratia marcescens; S. marcescens S2; read-out: MIC. The gist of the method: as §1
Another test deals with S. marcescens S5. The following applies: Serratia marcescens, S5, S. marcescens S5; read-out: MIC. The gist of the method: as §1
For another test, the system named is S. marcescens SM. Conditions: Serratia marcescens, read-out: MIC. The gist of the method:
as §1

`CC1(C)S[C@@H]2[C@H](N=CN3CCC(CCCn4ccnc4)CC3)C(=O)N2[C@H]1C(=O)O` [C, [2S-(2alpha,5alpha,6beta)]-6-[[4-[3-(1H-imidazol-1-yl)propyl]-1-piperidinyl]methylene]amino]-3,3-dimethyl-7-oxo-4-thia-1-azabicyclo[3.2.0]heptane-2-carboxylic acid 1.2 mole hydrochloride monohydrate]: the MIC with E. aerogenes 8 was above 128 µg/mL; with E. cloacae 6951, above 128 µg/mL; against E. cloacae P99, 8 µg/mL; with E. coli 503-455 it was 128 µg/mL; in the test with E. coli R-563 (R563, E. coli R-563, read-out: MIC), 4 µg/mL; with K. pneumoniae 503-964, 8 µg/mL. The MIC is 16 µg/mL in the test on K. pneumoniae 8357; 4 µg/mL in the test on K. pneumoniae A; above 128 µg/mL with P. aeruginosa 503-820; 16 µg/mL in the test with P. aeruginosa 5700; above 128 µg/mL with P. aeruginosa 8780; above 128 µg/mL in the test with P. aeruginosa Stone 130. The MIC in the test on P. mirabilis 190 is 8 µg/mL; with P. mirabilis 620A, above 128 µg/mL; with P. mirabilis 90 it was 32 µg/mL; in the test on P. rettgeri ATCC 9250, 16 µg/mL; in the test with P. vulgaris 100 it was above 128 µg/mL; in the test with S. aureus 1059B it was above 128 µg/mL. In addition, the MIC in the test on S. faecalis C1 was above 128 µg/mL; with S. marcescens S2 it was 16 µg/mL; in the test with S. marcescens S5, 64 µg/mL; in the test with S. marcescens SM, 8 µg/mL.
For the compound `CC1(C)S[C@@H]2[C@H](N=CN3CCC(Cn4ccnc4)CC3)C(=O)N2[C@H]1C(=O)O` [Compound A], the MIC came out at 32 µg/mL (≈ 81.7 µM) in the test on E. aerogenes 8; 4 µg/mL (≈ 10.2 µM) with E. cloacae 6951; 0.25 µg/mL (≈ 0.639 µM) against E. cloacae P99; 2 µg/mL (≈ 5.11 µM) in the test on E. coli 503-455; 0.125 µg/mL (≈ 0.319 µM) in the test on E. coli R-563 (R563); 0.016 µg/mL (≈ 0.0409 µM) in the test on K. pneumoniae 503-964. Further, the MIC was 0.25 µg/mL (≈ 0.639 µM) in the test with K. pneumoniae 8357; below 0.008 µg/mL in the test with K. pneumoniae A; above 128 µg/mL in the test with P. aeruginosa 503-820; 0.25 µg/mL (≈ 0.639 µM) in the test on P. aeruginosa 5700; above 128 µg/mL in the test with P. aeruginosa 8780; above 128 µg/mL in the test on P. aeruginosa Stone 130. Besides, the MIC in the test on P. mirabilis 190 worked out at 0.25 µg/mL (≈ 0.639 µM); in the test with P. mirabilis 620A, 16 µg/mL (≈ 40.9 µM); in the test on P. mirabilis 90, 1 µg/mL (≈ 2.55 µM); with P. rettgeri ATCC 9250, 0.5 µg/mL (≈ 1.28 µM); in the test on P. vulgaris 100, 8 µg/mL (≈ 20.4 µM); in the test with S. aureus 1059B, 32 µg/mL (≈ 81.7 µM). Moreover, the MIC in the test on S. faecalis C1 was determined as 128 µg/mL (≈ 327 µM); with S. marcescens S2, 0.25 µg/mL (≈ 0.639 µM); in the test with S. marcescens S5 it was 2 µg/mL (≈ 5.11 µM); in the test on S. marcescens SM, 0.25 µg/mL (≈ 0.639 µM).
In the case of `CC1(C)S[C@@H]2[C@H](N=CN3CCC(c4ncc[nH]4)CC3)C(=O)N2[C@H]1C(=O)O` [O, [2S-(2alpha,5alpha,6beta)]-6-[[[4-(1H-imidazol-2-yl-1-piperidinyl]methylene]amino]-3,3-dimethyl-7-oxo-4-thia-1-azabicyclo[3.2.0]heptane-2-carboxylic acid hydrochloride trihydrate], the MIC in the test on E. aerogenes 8 worked out at 32 µg/mL; in the test on E. cloacae 6951, 16 µg/mL; in the test on E. cloacae P99, 0.062 µg/mL; in the test with E. coli 503-455 it was 1 µg/mL; in the test with E. coli R-563 (R563) it was 0.125 µg/mL; in the test with K. pneumoniae 503-964, 0.5 µg/mL. The MIC in the test with K. pneumoniae 8357 is 0.5 µg/mL; with K. pneumoniae A it was 0.062 µg/mL; in the test with P. aeruginosa 503-820, above 128 µg/mL; in the test on P. aeruginosa 5700, 0.5 µg/mL; in the test with P. aeruginosa 8780 it was above 128 µg/mL; in the test with P. aeruginosa Stone 130 it was above 128 µg/mL. In addition, the MIC with P. mirabilis 190 is 0.5 µg/mL; with P. mirabilis 90, 0.5 µg/mL; in the test with P. rettgeri ATCC 9250 it was 0.5 µg/mL; in the test on P. vulgaris 100, 8 µg/mL; with S. aureus 1059B it was above 128 µg/mL; in the test on S. faecalis C1, 32 µg/mL. Besides, the MIC in the test with S. marcescens S2 and in the test with S. marcescens SM was 0.5 µg/mL throughout.
